Measurements from patent US20230131025A1, “QUINOLYL PHOSPHINE OXIDE COMPOUND, AND COMPOSITION AND APPLICATION THEREOF” (Betta Pharmaceuticals Co., Ltd., priority 2020, published 2023).

What was measured:
Ba/F3 EGFR WT = Ba/F3 EGFR WT (Homo sapiens, UniProt P00533); assay: Cell proliferation experiment (CellTiter Glo, 72 hours); assay type: cell-based; conditions: for GI50: read-out: BaF3 EGFR WT IC50
Outline: (§1)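 Ba/F3 cells overexpressing EGFR Δ19del/T790M/C797S or EGFR WT were seeded at 2000 or 3000 cells/well and exposed 72 h to 9 compound concentrations (3-fold, top 10000 or 1111 nM final, 0.1% DMSO). CellTiter-Glo luminescence gave survival inhibition versus controls; IC50 from nonlinear fit.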

Ba/F3-Δ19del/T790M/C797S = Ba/F3-Δ19del/T790M/C797S (Homo sapiens, UniProt P00533, T790M/C797S, cells depend on it, form not given); assay: as above; assay type: cell-based; conditions: for GI50: read-out: Ba/F3/EGFR Δ19del/T790M/C797S IC50
Sequence of Ba/F3-Δ19del/T790M/C797S (P00533 with tags, fused parts or gaps DEL746-750/T790M/C797S, form open): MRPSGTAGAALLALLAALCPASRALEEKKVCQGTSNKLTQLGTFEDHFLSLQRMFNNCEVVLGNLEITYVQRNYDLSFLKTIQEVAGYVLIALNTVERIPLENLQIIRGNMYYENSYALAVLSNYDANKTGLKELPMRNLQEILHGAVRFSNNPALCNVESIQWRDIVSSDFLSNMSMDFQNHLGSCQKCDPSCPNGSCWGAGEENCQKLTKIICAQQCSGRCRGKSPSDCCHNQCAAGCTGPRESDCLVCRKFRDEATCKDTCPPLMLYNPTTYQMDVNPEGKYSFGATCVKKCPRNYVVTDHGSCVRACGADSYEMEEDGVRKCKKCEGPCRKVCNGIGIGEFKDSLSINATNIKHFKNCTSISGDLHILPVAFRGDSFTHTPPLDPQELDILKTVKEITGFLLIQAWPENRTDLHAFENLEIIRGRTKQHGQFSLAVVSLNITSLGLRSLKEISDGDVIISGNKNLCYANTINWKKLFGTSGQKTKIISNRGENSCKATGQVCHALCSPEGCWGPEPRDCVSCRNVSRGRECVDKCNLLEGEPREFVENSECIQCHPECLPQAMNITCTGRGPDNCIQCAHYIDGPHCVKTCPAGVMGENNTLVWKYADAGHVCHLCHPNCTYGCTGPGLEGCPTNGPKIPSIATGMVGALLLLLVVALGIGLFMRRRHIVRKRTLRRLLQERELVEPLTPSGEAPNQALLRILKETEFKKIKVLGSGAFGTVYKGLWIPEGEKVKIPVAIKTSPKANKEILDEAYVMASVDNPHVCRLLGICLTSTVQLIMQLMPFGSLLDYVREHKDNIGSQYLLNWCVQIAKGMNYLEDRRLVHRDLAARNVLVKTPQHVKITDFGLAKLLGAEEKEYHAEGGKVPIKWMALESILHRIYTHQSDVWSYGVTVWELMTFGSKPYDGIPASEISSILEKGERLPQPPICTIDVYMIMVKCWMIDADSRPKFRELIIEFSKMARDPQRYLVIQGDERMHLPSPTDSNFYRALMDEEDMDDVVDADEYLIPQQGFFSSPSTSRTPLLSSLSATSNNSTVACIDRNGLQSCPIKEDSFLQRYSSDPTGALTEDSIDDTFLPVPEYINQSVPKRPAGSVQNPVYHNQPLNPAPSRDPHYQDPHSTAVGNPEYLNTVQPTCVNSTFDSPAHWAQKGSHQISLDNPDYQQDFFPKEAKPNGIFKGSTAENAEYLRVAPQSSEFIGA
Outline: as §1

[1] = In vivo efficacy data of Comparative example 1 cited from WO2019/015655A1, TGI and ED50 calculated; conditions: nonlinear fitting of dosage vs TGI calculated from cited data, FIG. 1
Method: Moreover, the data of Comparative example 1 (in the patent WO2019/015655A1) was cited in Table 4, and the TGI of each administration group was calculated. Nonlinear fitting was performed according to the administrating dosage and the tumor growth inhibition rate TGI (%) corresponding to each dosage using GraphPad Prism 8. The fitting formula is as follows and its ED50 (half effective dose) was calculated: Y=Bottom+(Top-Bottom)/(1+10^((Log ED50−X)*HillSlope)).
TGI was calculated according to the administration dosage and tumor growth volume of Comparative example 1. Nonlinear fitting was performed on the administration dosage and corresponding TGI (%). […] It can be seen that the half effective dose of compound J-022, which is 10 mg/kg/day, is equivalent to that of Comparative example 1.

[2] = In vivo safety experiment (body weight, tolerance); conditions: for Mortality of mice / Body weight of mouse: 75 mg/kg/day oral QD; for Mortality of mice: 7 consecutive days, 5 mice
Method: The safety evaluation of the drug was carried out in BALB/c nude mice. […] They were fed in an SPF environment, and each cage was individually ventilated (5 mice per cage). All cages, bedding and water were disinfected prior to use. Mice were purchased from Viton Lever and were allowed to acclimate in the laboratory. Mice were administered orally QD.

EGFR Δ19del/T790M/C797S = EGFR Δ19del/T790M/C797S (Homo sapiens, UniProt P00533, T790M/C797S, form not given); assay: Kinase inhibition assay (mobility shift); assay type: biochemical
Sequence of EGFR Δ19del/T790M/C797S (P00533 with tags, fused parts or gaps DEL746-750/T790M/C797S, form open): as above
Outline: (§2)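 Caliper mobility-shift read of substrate conversion after kinase-compound preincubation 10 min at room temperature, then ATP/substrate addition and reaction at room temperature. Ten-point 3-fold dilutions from 3,000 or 100 nM top; IC50 from variable-slope four-parameter fit of percent inhibition.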

IGF1R = IGF1R (Homo sapiens, UniProt P08069); assay: Kinase inhibition assay (mobility shift); assay type: biochemical
Outline: as §2

EGFR WT = EGFR WT (Homo sapiens, UniProt P00533); assay: Kinase inhibition assay (mobility shift); assay type: biochemical
Sequence of EGFR WT (P00533 25-1210): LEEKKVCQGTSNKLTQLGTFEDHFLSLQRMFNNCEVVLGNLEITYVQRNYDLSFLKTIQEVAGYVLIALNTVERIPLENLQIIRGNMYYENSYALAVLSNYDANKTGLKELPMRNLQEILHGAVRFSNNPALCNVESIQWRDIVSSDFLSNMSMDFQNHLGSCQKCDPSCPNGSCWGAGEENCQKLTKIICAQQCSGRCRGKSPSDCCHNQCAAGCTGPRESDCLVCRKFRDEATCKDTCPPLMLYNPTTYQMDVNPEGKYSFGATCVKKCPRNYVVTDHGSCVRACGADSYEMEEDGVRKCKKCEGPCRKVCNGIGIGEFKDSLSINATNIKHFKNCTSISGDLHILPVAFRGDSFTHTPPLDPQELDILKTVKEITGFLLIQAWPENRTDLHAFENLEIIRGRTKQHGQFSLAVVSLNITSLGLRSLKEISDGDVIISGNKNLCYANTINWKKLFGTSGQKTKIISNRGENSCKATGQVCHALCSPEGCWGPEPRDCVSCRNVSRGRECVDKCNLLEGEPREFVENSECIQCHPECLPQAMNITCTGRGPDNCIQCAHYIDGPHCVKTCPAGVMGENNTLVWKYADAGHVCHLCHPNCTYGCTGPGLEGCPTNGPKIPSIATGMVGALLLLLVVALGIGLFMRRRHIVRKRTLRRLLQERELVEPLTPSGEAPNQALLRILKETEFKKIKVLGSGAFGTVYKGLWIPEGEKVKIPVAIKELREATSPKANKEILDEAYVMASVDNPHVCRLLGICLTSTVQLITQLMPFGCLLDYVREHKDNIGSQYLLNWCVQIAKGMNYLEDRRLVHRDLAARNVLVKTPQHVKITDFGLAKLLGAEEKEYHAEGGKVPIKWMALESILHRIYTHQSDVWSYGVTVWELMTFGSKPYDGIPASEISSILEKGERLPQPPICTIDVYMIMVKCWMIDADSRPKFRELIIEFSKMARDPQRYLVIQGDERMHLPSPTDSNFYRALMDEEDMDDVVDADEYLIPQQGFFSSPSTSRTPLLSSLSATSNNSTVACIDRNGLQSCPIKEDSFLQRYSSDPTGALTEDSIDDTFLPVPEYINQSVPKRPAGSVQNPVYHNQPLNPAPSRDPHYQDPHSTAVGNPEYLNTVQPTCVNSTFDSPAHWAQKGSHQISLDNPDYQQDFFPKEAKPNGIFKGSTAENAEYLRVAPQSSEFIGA
Outline: as §2

[3] = tested on: human epidermal cancer cells A431 carrying EGFR WT; assay: Cell proliferation experiment (CellTiter Glo, 72 hours); assay type: cell-based; conditions: for IC50: Homo sapiens, A-431
Outline: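 Cells seeded at 2000 or 3000/well and exposed 72 h to 9-point 3-fold dilutions, top final 10000 nM or 1111 nM, 0.1% DMSO. Viability by CellTiter-Glo luminescence. Inhibition relative to cell and medium controls; IC50 by four-parameter nonlinear regression.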

Sequence of Ba/F3 EGFR WT (P00533 whole entry, stated change not applied): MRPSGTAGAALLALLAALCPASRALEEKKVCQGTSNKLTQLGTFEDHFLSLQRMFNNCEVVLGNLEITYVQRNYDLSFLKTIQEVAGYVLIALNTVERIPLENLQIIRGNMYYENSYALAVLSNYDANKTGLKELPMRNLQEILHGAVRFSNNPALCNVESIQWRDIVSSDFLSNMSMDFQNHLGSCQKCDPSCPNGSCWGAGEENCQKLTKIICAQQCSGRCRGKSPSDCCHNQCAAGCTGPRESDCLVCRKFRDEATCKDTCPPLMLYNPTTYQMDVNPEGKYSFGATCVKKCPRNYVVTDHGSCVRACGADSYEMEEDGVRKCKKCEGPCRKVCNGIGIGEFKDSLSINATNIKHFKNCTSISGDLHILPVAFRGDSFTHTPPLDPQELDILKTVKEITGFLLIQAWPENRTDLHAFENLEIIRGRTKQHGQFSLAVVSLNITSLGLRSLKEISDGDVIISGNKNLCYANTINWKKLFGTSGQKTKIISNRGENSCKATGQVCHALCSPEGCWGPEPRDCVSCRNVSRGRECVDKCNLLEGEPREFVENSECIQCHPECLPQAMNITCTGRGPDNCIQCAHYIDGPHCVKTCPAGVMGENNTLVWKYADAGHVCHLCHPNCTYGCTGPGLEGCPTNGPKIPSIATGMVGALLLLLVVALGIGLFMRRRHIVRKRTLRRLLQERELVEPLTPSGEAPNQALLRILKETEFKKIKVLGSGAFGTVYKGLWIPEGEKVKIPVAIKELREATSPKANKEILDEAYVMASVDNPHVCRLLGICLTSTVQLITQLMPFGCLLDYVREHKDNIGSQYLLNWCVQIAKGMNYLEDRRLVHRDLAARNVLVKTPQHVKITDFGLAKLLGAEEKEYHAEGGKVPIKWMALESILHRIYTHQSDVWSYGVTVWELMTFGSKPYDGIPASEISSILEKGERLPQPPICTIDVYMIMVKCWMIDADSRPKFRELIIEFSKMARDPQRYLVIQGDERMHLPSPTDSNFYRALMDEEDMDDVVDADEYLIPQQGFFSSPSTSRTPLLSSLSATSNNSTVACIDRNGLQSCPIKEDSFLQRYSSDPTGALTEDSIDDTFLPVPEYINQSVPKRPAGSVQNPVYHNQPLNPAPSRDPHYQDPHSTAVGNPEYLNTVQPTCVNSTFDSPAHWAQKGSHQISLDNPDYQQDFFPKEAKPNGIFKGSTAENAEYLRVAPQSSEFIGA

GI50 (Ba/F3 EGFR WT) [µM] | GI50 (Ba/F3-Δ19del/T790M/C797S) [µM] | IC50 (IGF1R) [µM] | IC50 (EGFR WT) [µM] | IC50 (EGFR Δ19del/T790M/C797S) [µM] | IC50 [3] [µM] | SMILES | BaF3 EGFR WT IC50 (Ba/F3 EGFR WT) | Ba/F3/EGFR Δ19del/T790M/C797S IC50 (Ba/F3-Δ19del/T790M/C797S) | half effective dose ED50 (dosage at TGI 50%) [1] [mg/kg/day] | Mortality of mice [2] | Mortality of mice ([2]; listed as Comparative example 1) | Body weight of mouse ([2]; 2 days) | Body weight of mouse ([2]; 4 days) | window from the effective dose to the intolerance dose ([2]; effective dose = dose corresponding to 50% TGI) | EGFR Δ19del/T790M/C797S IC50 (EGFR Δ19del/T790M/C797S) | IGF1R IC50 (IGF1R) | EGFR WT IC50 (EGFR WT) | A431 IC50 [3]
0.0985 | 0.0121 | 0.0581 | 0.0413 | 0.00022 | 0.204 | COc1cc(Nc2ncc(Br)c(Nc3ccc4nc(C5CC5)ccc4c3P(C)(C)=O)n2)cc(C)c1N1CCC(N2CCN(C)CC2)CC1 [Compound J-029, (6-((5-Bromo-2-((3-methoxy-5-methyl-4-(4-(4-methylpiperazin-1-yl)piperidin-1-yl)phenyl)amino)pyrimidin-4-yl)amino)-2-cyclopropylquinolin-5-yl)dimethylphosphine oxide] |  |  |  |  |  |  |  |  |  |  |  | 
0.189 | 0.0058 | 0.298 | 0.023 | 0.00012 | 0.441 | COc1cc(N2CCC(N3CCN(C)CC3)CC2)c(C)cc1Nc1ncc(Br)c(Nc2ccc3nc(C(C)C)ccc3c2P(C)(C)=O)n1 [Compound J-034, (6-((5-Bromo-2-((2-methoxy-5-methyl-4-(4-(4-methylpiperazin-1-yl)piperidin-1-yl)phenyl)amino)pyrimidin-4-yl)amino)-2-isopropylquinolin-5-yl)dimethylphosphine oxide] |  |  |  |  |  |  |  |  |  |  |  | 
0.256 | 0.012 | 0.0215 | 0.0335 | 0.0005 | 1.11 | COc1cc(Nc2ncc(Br)c(Nc3ccc4nc(C5CC5)ccc4c3P(C)(C)=O)n2)c(C)cc1N1CCN(C2CCCC2)CC1 [Compound J-039, (6-((5-Bromo-2-((4-(4-cyclopentylpiperazin-1-yl)-5-methoxy-2-methylphenyl)amino)pyrimidin-4-yl)amino)-2-cyclopropylquinolin-5-yl)dimethylphosphine oxide] |  |  |  |  |  |  |  |  |  |  |  | 
0.354 | 0.0284 | 0.025 | 0.0115 | 0.0002 | 0.228 | COc1cc(N2CCC(N3CCN(C)CC3)CC2)c(C)cc1Nc1ncc(Br)c(Nc2ccc3ncccc3c2P(C)(C)=O)n1 [Compound J-041, (6-((5-Bromo-2-((2-methoxy-5-methyl-4-(4-(4-methylpiperazin-1-yl)piperidin-1-yl)phenyl)amino)pyrimidin-4-yl)amino)quinolin-5-yl)dimethylphosphine oxide] |  |  |  |  |  |  |  |  |  |  |  | 
0.296 | 0.00818 | 0.107 | 0.0211 | 0.0003 | 0.373 | CCCc1ccc2c(P(C)(C)=O)c(Nc3nc(Nc4cc(C)c(N5CCC(N6CCN(C)CC6)CC5)cc4OC)ncc3Br)ccc2n1 [Compound J-042, (6-((5-Bromo-2-((2-methoxy-5-methyl-4-(4-(4-methylpiperazin-1-yl)piperidin-1-yl)phenyl)amino)pyrimidin-4-yl)amino)-2-propylquinolin-5-yl)dimethylphosphine oxide] |  |  |  |  |  |  |  |  |  |  |  | 

SMILES | GI50 (Ba/F3 EGFR WT) [µM] | GI50 (Ba/F3-Δ19del/T790M/C797S) [µM] | IC50 (IGF1R) [µM] | IC50 (EGFR WT) [µM] | IC50 (EGFR Δ19del/T790M/C797S) [µM] | IC50 [3] [µM] | BaF3 EGFR WT IC50 (Ba/F3 EGFR WT) | Ba/F3/EGFR Δ19del/T790M/C797S IC50 (Ba/F3-Δ19del/T790M/C797S) | half effective dose ED50 (dosage at TGI 50%) [1] [mg/kg/day] | Mortality of mice [2] | Mortality of mice ([2]; listed as Comparative example 1) | Body weight of mouse ([2]; 2 days) | Body weight of mouse ([2]; 4 days) | window from the effective dose to the intolerance dose ([2]; effective dose = dose corresponding to 50% TGI) | EGFR Δ19del/T790M/C797S IC50 (EGFR Δ19del/T790M/C797S) | IGF1R IC50 (IGF1R) | EGFR WT IC50 (EGFR WT) | A431 IC50 [3]
CCc1cc(Nc2ncc(Br)c(Nc3ccc4nccnc4c3P(C)(C)=O)n2)c(OC)cc1N1CCC(N2CCN(C)CC2)CC1 [Comparable example 1, reference compound] | 0.0399 | 0.009 | 0.0095 | 0.0051 |  |  | strong inhibitory effect | strong inhibitory effect | 8.7 | all the 5 mice died on the 6th day | all mice died of intolerance | began to decrease | decreased significantly | less than 8.6 times | strong inhibitory effect | strong inhibitory activity | strong inhibitory activity | certain inhibitory effect
